In patent publication US20100267561A1, “HERBICIDAL PYRIDAZINONE DERIVATIVES” (priority 2007, published 2010):

Key:
Type in all cases: in vivo
[1] = test system: johnsongrass (Sorghum halepense); test: Test B pre-/postemergence plant response; conditions: Preemergence
Summary of the method: (§1)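 Visual scoring from 0 (no effect) to 100 (complete control) against untreated controls was done 13 to 15 days after greenhouse treatment. Chemicals were formulated in a surfactant-containing non-phytotoxic solvent and applied to soil preemergence or to 1- to 4-leaf (2-18 cm) plants postemergence.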

[2] = test system: surinam grass (Brachiaria decumbens); test: Test B pre-/postemergence plant response; conditions: Preemergence
Summary of the method: as §1

[3] = test system: downy bromegrass (Bromus tectorum); test: Test C pre-/postemergence plant response; conditions: Preemergence
From the text: (§2) Seeds of plant species selected from annual bluegrass (Poa annua), blackgrass (Alopecurus myosuroides), canola (Brassica rapa), downy bromegrass (Bromus tectorum), green foxtail (Setaria viridis), Italian ryegrass (Lolium multiflorum), canarygrass (Phalaris minor), pigweed (Amaranthus retroflexus), spring barley (Hordeum vulgare), spring wheat (Triticum aestivum), wild mustard (Sinapis arvensis), wild oat (Avena fatua), windgrass (Apera spica-venti), winter barley (Hordeum vulgare), and winter wheat (Triticum aestivum) were planted and treated preemergence with test chemicals formulated in a non-phytotoxic solvent mixture which included a surfactant. At the same time, plants selected from these crop and weed species were treated with postemergence applications of some of the test chemicals formulated in the same manner. Plants ranged in height from 2 to 18 cm (1- to 4-leaf stage) for postemergence treatments.
(§3) Treated plants and controls were maintained in a controlled growth environment for 15 to 25 days after which time all species were compared to controls and visually evaluated. Plant response ratings, summarized in Table C, are based on a scale of 0 to 100 where 0 is no effect and 100 is complete control. A dash (-) response means no test result.

[4] = test system: spring barley (Hordeum vulgare); test: Test C pre-/postemergence plant response; conditions: Preemergence
From the text: as §2, §3

[5] = test system: windgrass (Apera spica-venti); test: Test C pre-/postemergence plant response; conditions: Preemergence, 62 g ai/ha; scale 0 to 100, 0 no effect, 100 complete control
From the text: as §2, §3

[6] = test system: green foxtail (Setaria viridis); test: Test C pre-/postemergence plant response; conditions: Preemergence
From the text: as §2, §3

[7] = test system: blackgrass (Alopecurus myosuroides); test: Test C pre-/postemergence plant response; conditions: Preemergence
From the text: as §2, §3

[8] = test system: annual bluegrass (Poa annua); test: Test C pre-/postemergence plant response; conditions: Preemergence
From the text: as §2, §3

[9] = test system: pigweed (Amaranthus retroflexus); test: Test C pre-/postemergence plant response; conditions: Preemergence
From the text: as §2, §3

[10] = test system: wild mustard (Sinapis arvensis); test: Test C pre-/postemergence plant response; conditions: Preemergence, 31 g ai/ha; scale 0 to 100 (0 no effect, 100 complete control)
From the text: as §2, §3

[11] = test system: canarygrass (Phalaris minor); test: Test C pre-/postemergence plant response; conditions: Preemergence
From the text: as §2, §3

[12] = test system: winter wheat (Triticum aestivum); test: Test C pre-/postemergence plant response; conditions: Preemergence
From the text: as §2, §3

[13] = test system: wild oat (Avena fatua); test: Test C pre-/postemergence plant response; conditions: Preemergence
From the text: as §2, §3

[14] = 8 g ai/ha, scale 0 to 100 (0 no effect, 100 complete control)
[15] = 16 g ai/ha, scale 0 to 100 (0 no effect, 100 complete control)
[16] = 31 g ai/ha, scale 0 to 100 (0 no effect, 100 complete control)
[17] = 62 g ai/ha, scale 0 to 100, 0 no effect, 100 complete control

Cc1cn(-c2ccc(Cl)cc2)nc1-c1c(O)cnn(C)c1=O [Compound 30, 4-[1-(4-chlorophenyl)-4-methyl-1H-pyrazol-3-yl]-5-hydroxy-2-methyl-3(2H)-pyridazinone]
Johnsongrass plant response rating ([1]; 8 g ai/ha, scale 0 to 100): 0 | pest or weed control at 16 g/ha ([1]; Sorghum halepense, pre-emergence, 16 g ai/ha, scale 0 to 100 (0 no effect, 100 complete control), read-out: Plant response rating, Johnsongrass): 50% | pest or weed control at 31 g/ha ([1]; Sorghum halepense, pre-emergence, 31 g ai/ha, 0 to 100 scale, 0 no effect, 100 complete control, read-out: Plant response rating, Johnsongrass): 50% | pest or weed control at 62 g/ha ([1]; Sorghum halepense, pre-emergence, 62 g ai/ha, scale 0 to 100, read-out: Plant response rating, Johnsongrass): 98% | Surinam Grass plant response rating ([2]; 8 g ai/ha, scale 0 to 100): 10 | pest or weed control at 16 g/ha ([2]; Urochloa decumbens, pre-emergence, 16 g ai/ha, scale 0 to 100 (0 no effect, 100 complete control), read-out: Plant response rating, Surinam Grass): 60% | pest or weed control at 31 g/ha ([2]; Urochloa decumbens, pre-emergence, 31 g ai/ha, 0 to 100 scale, 0 no effect, 100 complete control, read-out: Plant response rating, Surinam Grass): 90% | pest or weed control at 62 g/ha ([2]; Urochloa decumbens, pre-emergence, 62 g ai/ha, scale 0 to 100, read-out: Plant response rating, Surinam Grass): 95% | Plant response rating, Bromegrass, Downy [3, 14]: 0 | Plant response rating, Bromegrass, Downy [3, 15]: 0 | Plant response rating, Bromegrass, Downy [3, 16]: 0 | Plant response rating, Bromegrass, Downy [3, 17]: 0 | Plant response rating, Barley, Spring [4, 14]: 0 | Plant response rating, Barley, Spring [4, 15]: 0 | Plant response rating, Barley, Spring [4, 16]: 30 | Plant response rating, Barley, Spring [4, 17]: 50 | Plant response rating, Windgrass [5]: 35 | Plant response rating, Foxtail, Green [6, 14]: 10 | Plant response rating, Foxtail, Green [6, 15]: 25 | Plant response rating, Foxtail, Green [6, 16]: 80 | Plant response rating, Foxtail, Green [6, 17]: 100 | Plant response rating, Blackgrass [7, 14]: 0 | Plant response rating, Blackgrass [7, 15]: 20 | Plant response rating, Blackgrass [7, 16]: 90 | Plant response rating, Blackgrass [7, 17]: 98 | Plant response rating, Bluegrass [8, 14]: 0 | Plant response rating, Bluegrass [8, 15]: 0 | Plant response rating, Bluegrass [8, 16]: 0 | Plant response rating, Bluegrass [8, 17]: 0 | Plant response rating, Pigweed [9, 14]: 0 | Plant response rating, Pigweed [9, 15]: 0 | Plant response rating, Pigweed [9, 16]: 0 | Plant response rating, Pigweed [9, 17]: 0 | Plant response rating, Mustard, Wild [10]: 0 | Plant response rating, Canarygrass [11, 14]: 0 | Plant response rating, Canarygrass [11, 15]: 0 | Plant response rating, Canarygrass [11, 16]: 65 | Plant response rating, Canarygrass [11, 17]: 90 | Plant response rating, Wheat, Winter [12, 14]: 0 | Plant response rating, Wheat, Winter [12, 15]: 0 | Plant response rating, Wheat, Winter [12, 16]: 0 | Plant response rating, Wheat, Winter [12, 17]: 0 | Plant response rating, Oat, Wild [13, 14]: 0 | Plant response rating, Oat, Wild [13, 15]: 0 | Plant response rating, Oat, Wild [13, 16]: 30 | Plant response rating, Oat, Wild [13, 17]: 40
